Where two headings read alike, the source gives them in different places.
What was measured:
[1] = target: BRD4-BD1 (Homo sapiens (Human), UniProt O60885); assay: BRD4 AlphaScreen Assay (Example A2), BRD4-BD1; assay type: binding
Description: (§1) BRD4-BD1 and BRD4-BD2 assays were conducted in white 384-well polystyrene plate in a final volume of 40 μL for BD1 and 60 μL for BD2. Inhibitors were first serially diluted in DMSO and added to the plate wells before the addition of other reaction components. […] The assays were carried out at room temperature in the assay buffer (50 mM Tris-HCl, pH 7.5, 0.01% Tween-20, 0.01% BSA, 5 mM DTT), containing 50 nM Biotin-labeled tetra-acetylated histone H4 peptide (H4Ac4) and BRD4-BD1 or BRD4-BD2 protein at concentration less than 1 nM. […] After plate sealing, the plate was incubated in the dark at room temperature for 75 min. before reading on a PHERAstar FS plate reader (BMG Labtech). IC50 determination was performed by fitting the curve of percent control activity versus the log of the inhibitor concentration using the GraphPad Prism 5.0 software.

[2] = target: BRD4-BD2 (Homo sapiens (Human), UniProt O60885); assay: BRD4 AlphaScreen Assay (Example A2), BRD4-BD2; assay type: binding
Description: as §1

[3] = Assay A2, AlphaScreen, BRD4-BD1, read-out: BRD4 BD-1 enzyme IC50
[4] = Assay A2, AlphaScreen, BRD4-BD2, read-out: BRD4 BD-2 enzyme IC50

| SMILES | IC50 [1, 3] [nM] | IC50 [2, 4] [nM] | IC50 [1] [nM] | IC50 [2] [nM] |
| --- | --- | --- | --- | --- |
| Cc1noc(C)c1-c1cc(C#N)c2[nH]c(=O)n3c2c1OCC3c1ccccn1 (stereo not shown) [Example 269A, 7-(3,5-dimethylisoxazol-4-yl)-2-oxo-4-pyridin-2-yl-1,2,4,5-tetrahydroimidazo[1,5,4-de][1,4]benzoxazine-9-carbonitrile] | < 100 | < 100 |  |  |
| CC(=O)N1CCCC(c2nc3ccc(-c4c(C)noc4C)c4c3n2[C@@H](c2ccccn2)CO4)C1 (mixture of isomers) [Example 117, (4S)-2-(1-acetylpiperidin-3-yl)-7-(3,5-dimethylisoxazol-4-yl)-4-pyridin-2-yl-4,5-dihydroimidazo[1,5,4-de][1,4]benzoxazine (mixture of diastereomers)] | < 100 | < 100 |  |  |
| CC(=O)N1CCC=C(c2nc3ccc(-c4c(C)noc4C)c4c3n2[C@@H](c2ccccn2)CO4)C1 [Example 116, (4S)-2-(1-acetyl-1,2,5,6-tetrahydropyridin-3-yl)-7-(3,5-dimethylisoxazol-4-yl)-4-pyridin-2-yl-4,5-dihydroimidazo[1,5,4-de][1,4]benzoxazine] | < 100 | < 100 |  |  |
| Cc1noc(C)c1-c1cc(CNc2ccccc2)c2[nH]c(=O)n3c2c1OCC3c1ccccn1 (stereo not shown) [Example 262, 9-(anilinomethyl)-7-(3,5-dimethylisoxazol-4-yl)-4-pyridin-2-yl-4,5-dihydroimidazo[1,5,4-de][1,4]benzoxazin-2(1H)-one] | 1000 to 10000 | < 100 |  |  |
| Cc1noc(C)c1-c1ccc2[nH]c(=O)n3c2c1OCC3c1cccnc1C(=O)NC1CC1 (single isomer, unassigned) [Example 134, N-Cyclopropyl-3-[7-(3,5-dimethylisoxazol-4-yl)-2-oxo-1,2,4,5-tetrahydroimidazo[1,5,4-de][1,4]benzoxazin-4-yl]pyridine-2-carboxamide] | < 100 | < 100 |  |  |
| Cc1noc(C)c1-c1cc(F)c2nc(N3CCC(O)C3)n3c2c1OCC3c1cccnc1 (stereo not shown) [Example 157, 1-[7-(3,5-Dimethylisoxazol-4-yl)-9-fluoro-4-pyridin-3-yl-4,5-dihydroimidazo[1,5,4-de][1,4]benzoxazin-2-yl]pyrrolidin-3-ol] | < 100 | < 100 |  |  |
| Cc1noc(C)c1-c1ccc2[nH]c(=O)n3c2c1CCC3c1ccccc1 (stereo not shown) [Example 120, 7-(3,5-Dimethylisoxazol-4-yl)-4-phenyl-5,6-dihydro-4H-imidazo[4,5,1-ij]quinolin-2(1H)-one] | < 100 | < 100 |  |  |
| Cc1noc(C)c1-c1ccc2nc(C(=O)N(C)C)n3c2c1OC[C@@H]3c1ccccn1 [Example 91, (4S)-7-(3,5-Dimethylisoxazol-4-yl)-N,N-dimethyl-4-pyridin-2-yl-4,5-dihydroimidazo[1,5,4-de][1,4]benzoxazine-2-carboxamide] | < 100 | < 100 |  |  |
| Cc1noc(C)c1-c1ccc2[nH]c(=O)n3c2c1OC(CO)C3c1ccccn1 (single isomer, unassigned) [Example 62B, 7-(3,5-Dimethylisoxazol-4-yl)-5-(hydroxymethyl)-4-pyridin-2-yl-4,5-dihydroimidazo[1,5,4-de][1,4]benzoxazin-2(1H)-one] | < 100 | < 100 |  |  |
| Cc1noc(C)c1-c1ccc2nc(N3CC(O)C3)n3c2c1OCC3c1cccnc1 (single isomer, unassigned) [Example 160D, 1-[7-(3,5-Dimethylisoxazol-4-yl)-4-pyridin-3-yl-4,5-dihydroimidazo[1,5,4-de][1,4]benzoxazin-2-yl]azetidin-3-ol] | 1000 to 10000 | 1000 to 10000 |  |  |
| Cc1noc(C)c1-c1ccc2[nH]c(=O)n3c2c1OCC3c1cccnc1CN (stereo not shown) [Example 130, 4-[2-(Aminomethyl)pyridin-3-yl]-7-(3,5-dimethylisoxazol-4-yl)-4,5-dihydroimidazo[1,5,4-de][1,4]benzoxazin-2(1H)-one bis(trifluoroacetate)] | < 100 | < 100 |  |  |
| Cc1noc(C)c1-c1cc(C#N)c2[nH]c(=O)n3c2c1OCC3c1ccccn1 (stereo not shown) [Example 269B, 7-(3,5-dimethylisoxazol-4-yl)-2-oxo-4-pyridin-2-yl-1,2,4,5-tetrahydroimidazo[1,5,4-de][1,4]benzoxazine-9-carbonitrile] | 1000 to 10000 | 1000 to 10000 |  |  |
| Cc1noc(C)c1-c1ccc2nc(C3=CCNC3)n3c2c1OC[C@@H]3c1ccccn1 [Example 105, (4S)-2-(2,5-dihydro-1H-pyrrol-3-yl)-7-(3,5-dimethylisoxazol-4-yl)-4-pyridin-2-yl-4,5-dihydroimidazo[1,5,4-de][1,4]benzoxazine] | < 100 | < 100 |  |  |
| Cc1noc(C)c1-c1ccc2[nH]c(=O)n3c2c1OCC3c1cncc(F)c1 (stereo not shown) [Example 78, 7-(3,5-dimethylisoxazol-4-yl)-4-(5-fluoropyridin-3-yl)-4,5-dihydroimidazo[1,5,4-de][1,4]benzoxazin-2(1H)-one] | < 100 | < 100 |  |  |
| Cc1noc(C)c1-c1ccc2nc(C3=CCN(C(=O)OC(C)(C)C)CC3)n3c2c1OC[C@@H]3c1ccccn1 [Example 97, tert-Butyl 4-[(4S)-7-(3,5-dimethylisoxazol-4-yl)-4-pyridin-2-yl-4,5-dihydroimidazo[1,5,4-de][1,4]benzoxazin-2-yl]-3,6-dihydropyridine-1(2H)-carboxylate] | < 100 | < 100 |  |  |
| Cc1noc(C)c1-c1cc(C(C)O)c2[nH]c(=O)n3c2c1OC[C@@H]3c1ccccn1 (single isomer, unassigned) [Example 144A] | 100 to 1000 | < 100 |  |  |
| Cc1noc(C)c1-c1ccc2[nH]c(=O)n3c2c1OCC3C1CCCCN1 (single isomer, unassigned) [Example 63A, 7-(3,5-Dimethylisoxazol-4-yl)-4-piperidin-2-yl-4,5-dihydroimidazo[1,5,4-de][1,4]benzoxazin-2(1H)-one 2,2,2-trifluoroacetate] |  |  | 100 to 1000 | 100 to 1000 |
| Cc1noc(C)c1-c1ccc2nc(C3CCN(C(=O)C4CC4)C3)n3c2c1OC[C@@H]3c1ccccn1 (single isomer, unassigned; diastereomer 1) [Example 114A] | < 100 | < 100 |  |  |
| Cc1noc(C)c1-c1cc(F)c2[nH]c(=O)n3c2c1OCC3c1ccccn1 (stereo not shown) [Example 265B, 7-(3,5-dimethylisoxazol-4-yl)-9-fluoro-4-pyridin-2-yl-4,5-dihydroimidazo[1,5,4-de][1,4]benzoxazin-2(1H)-one] | < 100 | < 100 |  |  |
| Cc1noc(C)c1-c1ccc2[nH]c(=O)n3c2c1OC(C)C3c1ccccn1 (stereo not shown) [Example 75, 7-(3,5-dimethylisoxazol-4-yl)-5-methyl-4-pyridin-2-yl-4,5-dihydroimidazo[1,5,4-de][1,4]benzoxazin-2(1H)-one] | < 100 | < 100 |  |  |
| Cc1noc(C)c1-c1ccc2nc(C3CCN(S(C)(=O)=O)C3)n3c2c1OC[C@@H]3c1ccccn1 (mixture of isomers) [Example 115, (4S)-7-(3,5-dimethylisoxazol-4-yl)-2-[1-(methylsulfonyl)pyrrolidin-3-yl]-4-pyridin-2-yl-4,5-dihydroimidazo[1,5,4-de][1,4]benzoxazine (mixture of diastereomers)] | < 100 | < 100 |  |  |
| Cc1noc(C)c1-c1ccc2[nH]c(=O)n3c2c1OCC3c1cccc[n+]1[O-] (stereo not shown) [Example 16, 7-(3,5-Dimethylisoxazol-4-yl)-4-(1-oxidopyridin-2-yl)-4,5-dihydroimidazo[1,5,4-de][1,4]benzoxazin-2(1H)-one] | < 100 | < 100 |  |  |
| Cc1noc(C)c1-c1ccc2nc(C3=CCCN(C(=O)OC(C)(C)C)C3)n3c2c1OC[C@@H]3c1ccccn1 [Example 99, tert-Butyl 5-[(4S)-7-(3,5-dimethylisoxazol-4-yl)-4-pyridin-2-yl-4,5-dihydroimidazo[1,5,4-de][1,4]benzoxazin-2-yl]-3,6-dihydropyridine-1(2H)-carboxylate] | < 100 | < 100 |  |  |
| Cc1noc(C)c1-c1cc(-c2cnn(C)c2)c2[nH]c(=O)n3c2c1OC[C@@H]3c1ccccn1 [Example 81, (4S)-7-(3,5-dimethylisoxazol-4-yl)-9-(1-methyl-1H-pyrazol-4-yl)-4-pyridin-2-yl-4,5-dihydroimidazo[1,5,4-de][1,4]benzoxazin-2(1H)-one 2,2,2-trifluoroacetate] | 100 to 1000 | < 100 |  |  |
| Cc1noc(C)c1-c1ccc2nc(C3CCCN(S(C)(=O)=O)C3)n3c2c1OC[C@@H]3c1ccccn1 (mixture of isomers) [Example 119, (4S)-7-(3,5-dimethylisoxazol-4-yl)-2-[1-(methylsulfonyl)piperidin-3-yl]-4-pyridin-2-yl-4,5-dihydroimidazo[1,5,4-de][1,4]benzoxazine (mixture of diastereomers)] | < 100 | < 100 |  |  |
| Cc1noc(C)c1-c1ccc2nc(N3CC(NC(=O)C(C)C)C3)n3c2c1OC[C@@H]3c1ccccn1 [Example 233, N-{1-[(4S)-7-(3,5-dimethylisoxazol-4-yl)-4-pyridin-2-yl-4,5-dihydroimidazo[1,5,4-de][1,4]benzoxazin-2-yl]azetidin-3-yl}-2-methylpropanamide] | < 100 | < 100 |  |  |
